# Values of other authors in patent publication EP0387265B1, “USE OF 5-AMINOSALICYCLIC ACID (5-ASA) FOR THE PRODUCTION OF A PHARMACEUTICAL PREPARATION FOR USE IN REPERFUSION TREATMENT” (priority 1987, dated 1989).
# Read-outs that look alike come from different tables or passages of the source.
# Columns and labels:
# [1] = rats
# [2] = humans, moderate doses
# [3] = tested on: reperfusion ischemic injury in the gastric mucosa; conditions: rats
# [4] = 250 mg intravenously, humans having normal coagulation
# [5] = capable of neutralizing the toxic properties of the free radicals of oxygen; 'in contrast to' means not a radical scavenger
# [6] = in vivo
# [7] = 100 or 250 mg intravenously, 6 normal test humans
# [8] = tested on: acute myocardial ischemia and reperfusion injuries; conditions: dogs; MPG together with neutrophilic antiserum; compared to a control group which received non-immune serum
# colitis ulcerosa = conditions: in vivo
compound,measurement,setting,value
"Nc1ccc(O)c(C(=O)O)c1 [5-ASA, 5-aminosalicylic acid]",nephrotoxic effect,[1],nephrotoxic effect has been demonstrated
same,nephrotoxic effect,[2],does not have any noticeable nephrotoxic effect
same,protection against reperfusion ischemic injury in the gastric mucosa,[3],offers protection
same,effect of fibrinolysis,[4],has not been found to result in any effect
same,effect of the thrombocyte function,[4],has not been found to result in any effect
same,radical scavenger,[5],is a radical scavenger
same,side effects,[6],No side effects have been observed which can be related to the substance with certainty
same,distribution volume,[7],0.4 L/kg
same,half-life,[7],35 min
"CC(S)C(=O)NCC(=O)O (stereo not shown) [MPG, N-2-mercaptopropionyl glycine]",reduced the infarct size,[8],63%
CC(=O)Oc1ccccc1C(=O)O [acetylsalicylic acid],effect against colitis ulcerosa,colitis ulcerosa,no effect
O=C([O-])c1ccccc1O.[Na+] [sodium salicylate],effect against colitis ulcerosa,colitis ulcerosa,no effect
Nc1ccc(S(=O)(=O)Nc2ccccn2)cc1 [sulfapyridine],protection against reperfusion ischemic injury in the gastric mucosa,[3],not
